Assay results published in US9988626B2, “Neurocalcin delta inhibitors and therapeutic and non-therapeutic uses thereof” (Universität Zu Köln, priority 2013, dated 2018).
“Also recorded” adds a separate entry of the source.

Columns and labels:
zebrafish larvae = experiment: Endocytosis inhibitor treatment of zebrafish, motor axon phenotype; assay type: in vivo
Procedure: The in vivo effect of inhibition of endocytosis on MN outgrowth was investigated by the use of the pharmacological inhibitors Pitstop2 and Dynasore (both Abcam) in the SMA zebrafish model. Motor axons of treated zebrafish larvae were analyzed by fluorescence microscopy. For immunohistochemistry, zebrafish were manually dechorionated and fixed in 4% PFA-PBS at 34 hours post fertilization. To permeabilize the larvae for the following antibody staining, collagenase digest of the whole animal was performed. To visualize the primary motor axons, fish were incubated at 4° C. over night in 500 μl PBS-T/1% DMSO/10% FCS containing znp-1 antibody (1:300, Hybridoma Bank). Fish were stained in PBS-T/1% DMSO/10% FCS containing secondary donkey anti-mouse antibody labelled with Alexafluor 488 (1:200, Invitrogen) after all-day washing in PBS-T/1% FCS/1% BSA (changing solution every hour). After repeated washing in PBS-T and PBS, fish were stored in 80% glycerol/20% PBS in the dark at 4° C. Labelled fish were embedded in low-melting agarose micro slides and analysed using a fluorescence microscope (AxioImager M2, Zeiss). The structure of each of the first ten motor axons posterior to the yolk was analysed, rated as: 1) normal, 2) truncated (truncation ventral from midline), 3) severely truncated (shorter than midline), 4) branched I (branching ventral from midline), 5) branched II (branching at midline), or 6) branched BI (branching dorsal from midline) and statistically evaluated using Excel (Microsoft). Dynasore (dynamin inhibitor) and Pitstop2 (clathrin inhibitor) (both Abcam) were dissolved as stock solution (50 mM) in DMSO and stored at −20° C. Zebrafish were treated with the respective concentrations starting at 16 hpf. To do so, fish were dechorionated and substance was added to the embryo medium. Fish larvae were incubated at 28° C. in an incubator on a rocking platform (20 rpm) until fixed in PBS-PFA at 34 hpf. Subsequently fish were stained with znp-1 antibody, as described above.

NSC34 cells = experiment: FITC-dextran endocytosis assay of NSC34 cells treated with Ionomycin; assay type: cell-based, mouse; settings: presence vs absence of Ionomycin, n=50
Procedure: To unravel differences in endocytosis performance, cells (fibroblasts and NSC34) were starved and subsequently incubated with FITC-dextran. FITC-uptake after respective incubation times was quantified either by microscopic analysis or by FACS.
One day before the measurement, some 15,000 fibroblasts per well (4-well EZ slides, Millipore) were plated out in 500 μl normal DMEM growth medium (Invitrogen). Cells were starved for 10 minutes in starvation media (DMEM transparent (HEPES), 2% FKS) at 37° C. For endocytosis, cells were treated with FITC dextran solution (5 mg/ml FITC-dextran in starvation medium) for respective time period at 37° C. Subsequently, medium was removed and cells were washed three times with ice-cold PBS on ice and fixed in 4% paraformaldehyde for ten minutes. After subsequent washing (2 times in PBS) cells were stained with Alexafluor 568 phalloidin (Invitrogen, 2 hours at 4° C.). Then, after washing cells were stained with DAPI and mounted with Mowiol (Sigma). Finally, FITC fluorescence was monitored at the fluorescence microscope (Axiolmager M2, Zeiss) and quantified using the Zen software (Zeiss) and evaluated with Excel (Microsoft).

Ncald = experiment: Knockdown efficiency of shRNA constructs in NSC34 cells (qRT-PCR of Ncald levels); assay type: cell-based, mouse; settings: transient transfection of NSC34 cells, 72 h
Procedure: Before starting the cloning of the targeting construct for the mouse generation, we constructed and tested five individual shRNA elements targeting the Ncald gene. To do so, we transiently transfected five different shRNA-Ncald constructs in murine NSC34 cells and analysed the knockdown efficiency after 72 h. […] For further testing, we cloned selected shRNA sequences into the vector pEx-H1tetO-CAG-tetR carrying all necessary elements of the tetO/R system which allow later induction of the shRNA-expression by administration of doxycycline (Dox) (Kleinhammer et al. 2011). Currently, after we could verify the dox-inducible capability of two shRNA constructs to knockdown Ncald, we are producing stable murine embryonic cell lines (ES cells) to subsequently generate two individual transgenic mouse strains containing inducible Ncald knockdown vectors. These mice will later be crossed on SMA background to investigate the protective ability of Ncald downregulation.
The knockdown efficiency of five individual shRNA sequences was tested by qRT-PCR-based quantification of Ncald levels, 72 h after knockdown using different shRNA sequences. Transient transfection of NSC34 cells. The respective sequences are those of SEQ ID NO: 15-19 as shown above.

For `O=C(N/N=C/c1ccc(O)c(O)c1)c1cc2ccccc2cc1O` [Dynasore], the “Motor axon truncation, inhibitor alone or with low smn MO” value (zebrafish larvae; Dynasore alone or in combination with low smn MO) was “SMA-like axonal truncations”.

For `C[C@H](CCC(=O)O)C[C@H](C)C[C@H](C)C(=O)/C=C(\O)[C@H](C)C[C@H](C)C/C=C/[C@@H](C)[C@@H](O)[C@@H](C)[C@@H](O)C[C@@H]1CC[C@@](C)([C@H]2CC[C@@](C)([C@@H](C)O)O2)O1` [Ionomycin], the “Endocytosis (FITC-dextran)” value (NSC34 cells) was “significant increase in endocytosis; also recorded: significantly increased endocytosis”.

For `O=C1NC(=NS(=O)(=O)c2cccc3ccccc23)S/C1=C\c1ccc(Br)cc1` [Pitstop2], the “Motor axon truncation, inhibitor in combination with smn MO” value (zebrafish larvae; subphenotypical smn MO (2 ng) plus Pitstop2) was “significant elevation in the number of truncated motor axons” and the “Motor axon truncation, inhibitor in combination with smn MO” value (zebrafish larvae; subphenotypical smn MO (2 ng) plus Pitstop2, listed as Pitstop) was “synergistic effect”.

“shRNA #4: shRNA knocking down mouse NCALD, one of five of SEQ ID NO: 15-19 (DNA CCGGCGCCAGATGGATACCAATAGACTGGAGTCTATTGGTATCCATCTGGCGTTTTTG)” was tested, and the “Knockdown efficacy of Ncald” value (Ncald) was “sufficient knockdown efficacy”.

With “shRNA #5: shRNA knocking down mouse NCALD, one of five of SEQ ID NO: 15-19 (DNA CCGGGCTTCCAAATTTGCAGAGCATCTGGAGATGCTCTGCAAATTTGGAAGCTTTTTG)” the “Knockdown efficacy of Ncald” value (Ncald) was “sufficient knockdown efficacy”.
